Results taken from publication PMC7911295, “Metabolism of Zearalenone in the Rumen of Dairy Cows with and without Application of a Zearalenone-Degrading Enzyme” (Toxins, 2021).

How the values were obtained:
[1] = for Detection in reactors: reactors incubated with ZEN without ZenA, any time point
estrogen-sensitive yeast = tested on: estrogen-sensitive yeast; set-up: method as in PMID 31434326; conditions: cited from earlier work
[2] = Feeding trial in rumen-fistulated dairy cows: ZEN and ZEN metabolites in rumen fluid from reticulum, dorsal mat layer and ventral sac; format: in vivo, Holstein Friesian cows; conditions: for Detection in rumen fluid: any reticulorumen location
From the text: (§1) Ruminal metabolism of ZEN with and without supplementation of ZenA was investigated in four rumen-fistulated Holstein Friesian cows (sex: female; age at start: 5.9 ± 1.0 years; body weight at start: 863 ± 65 kg; physiological stage: non-lactating; general health: good, non-gestating; identification procedure: ear tag 4-digit code). The cows were part of the dairy herd of VetFarm (Teaching and Research Farm) of the University of Veterinary Medicine Vienna in Kremesberg, Austria. All procedures related to these experiments were performed according to Austrian law and following the European Guidelines for the Care and Use of Animals for Research Purpose. The animal experiment was approved by ethics and animal welfare commission of the University of Veterinary Medicine, Vienna and the Austrian Federal Ministry of Education, Science and Research (68.205/0156-WF/V/3b/2017, 30.08.2017).
(§2) In our trial setup, each animal was considered an experimental unit (n = 4). Each animal received the same treatment and served as its own control. First, each animal received ZEN-contaminated concentrate feed. Following a 48-h washout period, each animal received ZEN-contaminated concentrate feed supplemented with ZenA. In brief, for acclimatization, on the day prior to the start of the feeding trial, each animal was manually fed 4 × 500 g of control concentrate (Table 4 and Table 5). Thereafter, animals were manually fed (i) 1 × 500 g concentrate contaminated with ZEN and 3 × 500 g control concentrate on experimental day 1 (ZEN treatment), (ii) 4 × 500 g control concentrate on day 2 (ZEN washout), (iii) 1 × 500 g ZEN-contaminated concentrate supplemented with ZenA and 3 × 500 g control concentrate on day 3 (ZEN+ZenA treatment), and (iv) 4 × 500 g control concentrate on day 4 (ZEN+ZenA washout; Table 6). Animals were treated and assessed in the same random order at each experimental time point.
For production of ZEN-contaminated concentrate feed, lyophilizate of ZEN with maltodextrin as a carrier was prepared. To this end, in three parallel preparations, 50 mg ZEN (Fermentek, Jerusalem, Israel) was dissolved in 1 L RO water (pH 12; adjusted with NaOH) using a magnetic stirrer set to 400 rpm and 37 °C for 20 min. Subsequently, 100 g maltodextrin DE19 (Agrana, Vienna, Austria) was added and dissolved by stirring (400 rpm) at room temperature for 10 min. The solution was lyophilized. Lyophilizate was mixed into concentrate feed at an inclusion rate of 2%. The final concentration of ZEN in feed was aimed to be 10 mg/kg and was verified using HPLC-MS/MS analysis as described below. For production of ZEN-contaminated, ZenA-supplemented concentrate, a zearalenone hydrolase ZenA preparation (ZENzyme®; EC 3.1.1.-; BIOMIN Holding GmbH, Getzersdorf, Austria) was mixed into ZEN-contaminated concentrate to achieve an activity of 128 U/kg feed. Same as in the in vitro trial, 1 U of ZenA was defined as the enzyme activity that hydrolyzes 1 μmol ZEN per minute from 15.71 µM ZEN in Teorell Stenhagen buffer adjusted to pH 7.5 containing 0.1 mg/mL bovine serum albumin at 37 °C.
On days 1 and 3 of the trial (ZEN and ZEN+ZenA treatment, respectively), ruminal digesta samples were taken from reticulum, ventral sac and dorsal mat layer (Figure 3) immediately before concentrate feeding (0 h), as well as 15 min, 1 h, 2 h, 4 h, 7 h and 10 h after concentrate feeding (Table 6). On days 2 and 4 of the trial (washout days), ruminal digesta samples were taken immediately before first concentrate feeding (0 h), as well as 10 h after first concentrate feeding (Table 6). Ruminal digesta samples (10 mL) were taken via a rumen fistula from reticulum and ventral sac (10 cm above the bottom of the rumen) using a pump as described previously. Samples were taken from the dorsal mat layer 20 cm below the gas phase and rumen fluid was obtained by manually squeezing the samples as described previously. Samples were mixed 1:2 with acetonitrile by vortexing. […]

MCF-7 cell = tested on: MCF-7 cell; set-up: method as in PMID 12596876, PMID 31434326; conditions: cited from earlier work
[3] = Feeding trial in rumen-fistulated dairy cows: ZEN and ZEN metabolites in feces; format: in vivo, Holstein Friesian cows; conditions: for Percentage of concentration relative to the sum of ZEN and ZEN metabolite concentrations: feces
From the text: as §1, §2
On days 1 and 3 of the experiment, feces samples were taken from the rectum immediately before concentrate feeding (0 h), as well as 10 h after concentrate feeding (Table 6) and stored at −20 °C. Aliquots (500 mg) of thoroughly homogenized feces samples were extracted for HPLC-MS/MS analysis according to the method described by Binder and coworkers.
HPLC-MS/MS analysis of ZEN, α-ZEL, β-ZEL, HZEN and DHZEN in rumen fluid and feces was performed as described for the in vitro rumen fermentation experiment (see section “In Vitro Rumen Fermentation Experiment”, subsection “Analysis of ZEN and its Metabolites”), with the following modifications. Chromatographic separation was performed with a flow rate of 0.6 mL/min, a duration of 4 min and an injection volume was 1 µL. The gradient started at 30% B which was held for 0.3 min. Subsequently, the proportion of B was increased to 80% from 0.3 to 2 min, and increased to 100% from 2 to 2.1 min. […] LODs for ZEN, α-ZEL, β-ZEL, HZEN and DHZEN in rumen fluid were 2.83 nmol/L (0.9 µg/L), 2.81 nmol/L (0.9 µg/L), 2.81 nmol/L (0.9 µg/L), 2.68 nmol/L (0.9 µg/L) and 10.27 nmol/L (3 µg/L), respectively. LOQs for ZEN, α-ZEL, β-ZEL, HZEN and DHZEN in rumen fluid were 9.43 nmol/L (3 µg/L), 9.37 nmol/L (3 µg/L), 9.37 nmol/L (3 µg/L), 8.93 nmol/L (3 µg/L) and 30.81 nmol/L (9 µg/L), respectively. LODs for ZEN, α-ZEL, β-ZEL, HZEN and DHZEN in feces were 0.03 nmol/g (8.4 ng/g), 0.03 nmol/g (8.4 ng/g), 0.03 nmol/g (8.4 ng/g), 0.03 nmol/g (8.4 ng/g) and 0.10 nmol/g (28 ng/g), respectively. LOQs for ZEN, α-ZEL, β-ZEL, HZEN and DHZEN in feces were 0.09 nmol/g (28 ng/g), 0.09 nmol/g (28 ng/g), 0.09 nmol/g (28 ng/g), 0.08 nmol/g (28 ng/g) and 0.29 nmol/g (84 ng/g), respectively.

pigs = tested on: pigs; set-up: method as in PMID 31434326; conditions: in contrast to ZEN; cited from earlier work
[4] = reticulorumen, ZEN treatment, 15 min after feeding, from median of 3 locations
[5] = reticulorumen, ZEN treatment, 1 h
[6] = reticulorumen, ZEN treatment, 4 h
[7] = reticulorumen, ZEN treatment, 7 h
[8] = reticulorumen, ZEN treatment, 10 h
[9] = reticulorumen, ZEN treatment, 24 h
[10] = reticulorumen, ZEN+ZenA treatment, 15 min
[11] = reticulorumen, ZEN+ZenA treatment, 1 h
[12] = reticulorumen, ZEN+ZenA treatment, 4 h
[13] = reticulorumen, ZEN+ZenA treatment, 7 h
[14] = reticulorumen, ZEN+ZenA treatment, 10 h
[15] = ZEN+ZenA treatment, 0 h (48 h after ZEN treatment)

Row | SMILES | Detection in reactors [1] | Estrogenic response (estrogen-sensitive yeast) | Detection in rumen fluid ([2]; ZEN treatment) | Percentage of concentration relative to the sum of ZEN and ZEN metabolite concentrations [2, 4] | Percentage of concentration relative to the sum of ZEN and ZEN metabolite concentrations [2, 5] | Percentage of concentration relative to the sum of ZEN and ZEN metabolite concentrations [2, 6] | Percentage of concentration relative to the sum of ZEN and ZEN metabolite concentrations [2, 7] | Percentage of concentration relative to the sum of ZEN and ZEN metabolite concentrations [2, 8] | Percentage of concentration relative to the sum of ZEN and ZEN metabolite concentrations [2, 9] | Percentage of concentration relative to the sum of ZEN and ZEN metabolite concentrations [2, 10] | Percentage of concentration relative to the sum of ZEN and ZEN metabolite concentrations [2, 11] | Percentage of concentration relative to the sum of ZEN and ZEN metabolite concentrations [2, 12] | Percentage of concentration relative to the sum of ZEN and ZEN metabolite concentrations [2, 13] | Percentage of concentration relative to the sum of ZEN and ZEN metabolite concentrations [2, 14] | Estrogenic response (MCF-7 cell) | Percentage of concentration relative to the sum of ZEN and ZEN metabolite concentrations ([3]; ZEN treatment, 10 h) | Percentage of concentration relative to the sum of ZEN and ZEN metabolite concentrations [3, 15] | Percentage of concentration relative to the sum of ZEN and ZEN metabolite concentrations ([3]; ZEN+ZenA treatment, 10 h) | Effect on reproductive tract morphology or expression of ZEN-responsive microRNAs (pigs) | further results
1 | C[C@H](O)CCCC(=O)CCC/C=C/c1cc(O)cc(O)c1 [DHZEN, decarboxylated hydrolyzed zearalenone] | not detected | did not elicit an estrogenic response | not detected | 0.0% | 0.0% | 0.0% | 0.0% | 0.0% | 0.0% | 0.0% | 0.0% | 0.0 (traces) % | 0.0 (traces) % | 0.0 (traces) % | did not elicit an estrogenic response | 0.0% | 0.0% | 0.0% | did not affect | First detected (time after start of incubation) ([1]; reactors incubated with ZEN and ZenA (100 U/kg feed)): 2 h; Detection in feces ([3]; ZEN and ZEN+ZenA treatments, any sample): not detected
2 | C[C@H](O)CCCC(=O)CCC/C=C/c1cc(O)cc(O)c1C(=O)O [HZEN, hydrolyzed zearalenone] | not detected | did not elicit an estrogenic response | not detected | 0.0% | 0.0% | 0.0% | 0.0% | 0.0% | 0.0% | 94.1% | 100.0% | 100.0% | 100.0% | 100.0% | did not elicit an estrogenic response | 0.0% | 0.0% | 31.9% | did not affect | Not detected anymore at (time after concentrate feeding) ([2]; reticulorumen, ZEN+ZenA treatment): 24 h
